Experimental data reported in ChEMBL document CHEMBL4219070, “Probing biological activity through structural modelling of ligand-receptor interactions of 2,4-disubstituted thiazole retinoids” (Bioorg Med Chem, 2018).
Activity calls are given as the source filed them. The calls are words filed in the database; no cut-off is given here.

Key:
SH-SY5Y = experiment: Induction of neuronal differentiation in human SH-SY5Y cells assessed as increase in RARbeta mRNA expression at 0.001 to 1 uM measured after 8 hrs by RT-PCR analysis; type: functional, cell-based
Homo sapiens = organism: Homo sapiens; experiment: Induction of neuronal differentiation in human TERA2.cl.SP12 cells assessed as small and scattered colonies of TUJ-1 positive cells at 10 uM measured measured after 2 weeks by immunofluorescence method; type: functional, cell-based

SMILES	Activity (SH-SY5Y)	Activity (Homo sapiens)
CCOCCOc1nc(-c2ccc(C(=O)O)cc2)sc1C	Active	Active
CCOC(=O)c1ccc(-c2nc(-c3ccccc3)c(C)s2)cc1	–	Active
CC1=C(/C=C/C(C)=C/C=C/C(C)=C/C(=O)O)C(C)(C)CCC1	Active	–
